Measured values taken from PubChem BioAssay (NCI).
Where “and” joins values, the source holds several entries; their conditions need not be identical. Equal entries are not always repeated.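 Assay format: 96-well plates, 48-hour exposure. GI50 is the concentration that inhibits growth by half. TGI: total growth inhibition.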

Legend:
Experiment in all cases: NCI tumour cell line growth inhibition, 48 h
KM20L2 colon = test system: KM20L2 colon
DMS 273 small cell lung = test system: DMS 273 small cell lung
MDA-N = test system: MDA-N
DMS 114 small cell lung = test system: DMS 114 small cell lung
M19-MEL melanoma = test system: M19-MEL melanoma
P388/ADR leukemia = test system: P388/ADR leukemia
RXF-631 renal = test system: RXF-631 renal
MDA-MB-435 = test system: MDA-MB-435
HOP-18 NSCLC = test system: HOP-18 NSCLC
SN12K1 renal = test system: SN12K1 renal
LXFL 529 NSCLC = test system: LXFL 529 NSCLC

## COc1nc(C(Cl)(Cl)Cl)c(Cl)c(OC)c1Cl
KM20L2 colon
  GI50: 21 µM
  TGI: 55.7 µM and 85.2 µM
DMS 273 small cell lung
  TGI: 75.3 µM
MDA-N
  TGI: 57.5 µM
DMS 114 small cell lung
  GI50: 19.7 µM
  TGI: 45.9 µM and 61.6 µM
M19-MEL melanoma
  GI50: 25.3 µM
  TGI: 58.5 µM and 67 µM
P388/ADR leukemia
  TGI: 85.9 µM
RXF-631 renal
  TGI: 49.4 µM
MDA-MB-435
  TGI: 79.7 µM
HOP-18 NSCLC
  TGI: 70.1 µM
SN12K1 renal
  TGI: 62.4 µM

## Cn1c(=O)c2nc3sc4ccccc4c(=N)n3c2n(C)c1=O
DMS 273 small cell lung
  TGI: > 100 µM
LXFL 529 NSCLC
  TGI: > 100 µM
DMS 114 small cell lung
  TGI: > 100 µM
M19-MEL melanoma
  TGI: > 100 µM
RXF-631 renal
  TGI: > 100 µM
HOP-18 NSCLC
  TGI: > 100 µM

## Cn1c(=O)ccc2cc(C(=O)c3ccccc3)ccc21
KM20L2 colon
  TGI: > 100 µM
DMS 273 small cell lung
  TGI: > 100 µM
LXFL 529 NSCLC
  TGI: > 100 µM
DMS 114 small cell lung
  TGI: 81.1 µM
M19-MEL melanoma
  TGI: > 100 µM
RXF-631 renal
  TGI: > 100 µM
HOP-18 NSCLC
  TGI: > 100 µM

## O=C1CCC(=O)C12CCc1ccccc12
KM20L2 colon
  TGI: > 100 µM
DMS 273 small cell lung
  TGI: > 100 µM
LXFL 529 NSCLC
  TGI: > 100 µM
DMS 114 small cell lung
  TGI: > 100 µM
M19-MEL melanoma
  TGI: > 100 µM
RXF-631 renal
  TGI: > 100 µM
HOP-18 NSCLC
  TGI: > 100 µM

## CCCCCCCCCCCCCCCc1nc(SCC(=O)O)n[nH]1
LXFL 529 NSCLC
  TGI: 66.4 µM
RXF-631 renal
  TGI: > 100 µM
HOP-18 NSCLC
  TGI: > 100 µM

## CC(=O)c1ccc(-c2ccc(C(C)=O)s2)s1
KM20L2 colon
  TGI: > 100 µM
DMS 273 small cell lung
  TGI: > 100 µM
LXFL 529 NSCLC
  TGI: > 100 µM
DMS 114 small cell lung
  TGI: 2.76 µM
M19-MEL melanoma
  TGI: > 100 µM
RXF-631 renal
  TGI: > 100 µM
HOP-18 NSCLC
  TGI: > 100 µM

## CCn1cc(C(=O)O)c(=O)c2cc(F)c(N3CCNCC3)nc21
DMS 273 small cell lung
  TGI: > 100 µM
LXFL 529 NSCLC
  TGI: > 100 µM
DMS 114 small cell lung
  TGI: > 100 µM
M19-MEL melanoma
  TGI: > 100 µM
RXF-631 renal
  TGI: > 100 µM
HOP-18 NSCLC
  TGI: > 100 µM

## N[C@@H](Cc1ccc(N(CCCl)CCCl)cc1)C(=O)O
KM20L2 colon
  GI50: 14 µM
  TGI: > 31.6 µM and 193 µM
DMS 273 small cell lung
  GI50: 6.97 µM
  TGI: 33.6 µM and 68.3 µM
MDA-N
  TGI: 126 µM
LXFL 529 NSCLC
  TGI: 110 µM
DMS 114 small cell lung
  GI50: 13 µM
  TGI: 29.1 µM and 86.4 µM
M19-MEL melanoma
  GI50: 15.9 µM
  TGI: 45.3 µM and 102 µM
P388/ADR leukemia
  GI50: 2590 nM
  TGI: 37.7 µM and 76.3 µM
MDA-MB-435
  GI50: 63.4 µM
  TGI: > 100 µM and 105 µM
HOP-18 NSCLC
  GI50: 23.7 µM and 55.1 µM
  TGI: 64.5 µM and 158 µM
SN12K1 renal
  GI50: 11.8 µM
  TGI: 60.5 µM and 102 µM

## COC(=O)C1=CCS(=O)(=O)C1
KM20L2 colon
  TGI: > 100 µM
LXFL 529 NSCLC
  TGI: > 100 µM
DMS 114 small cell lung
  TGI: > 100 µM
M19-MEL melanoma
  TGI: > 100 µM
RXF-631 renal
  TGI: > 100 µM
HOP-18 NSCLC
  TGI: > 100 µM

## O=C1C2Cc3ccccc3CN2C(=O)N1CCN1CCOCC1 (stereo not given)
KM20L2 colon
  TGI: > 100 µM
DMS 273 small cell lung
  TGI: > 100 µM
LXFL 529 NSCLC
  TGI: > 100 µM
DMS 114 small cell lung
  TGI: > 100 µM
M19-MEL melanoma
  TGI: > 100 µM
RXF-631 renal
  TGI: > 100 µM

## CC12CCC(C)(c3cc(O)c(O)cc31)c1cc(O)c(O)cc12
KM20L2 colon
  TGI: 39.2 µM
DMS 273 small cell lung
  TGI: 37.5 µM
LXFL 529 NSCLC
  TGI: 22.2 µM
DMS 114 small cell lung
  TGI: 31.1 µM
M19-MEL melanoma
  TGI: 31.6 µM
RXF-631 renal
  TGI: 55.6 µM

## COc1cc(C2C(C(=O)Nc3ccccc3C)=C(C)NC(C)=C2C(=O)Nc2ccccc2C)ccc1O
KM20L2 colon
  TGI: > 100 µM
DMS 273 small cell lung
  TGI: > 100 µM
LXFL 529 NSCLC
  TGI: > 100 µM
DMS 114 small cell lung
  TGI: > 100 µM
M19-MEL melanoma
  TGI: > 100 µM
RXF-631 renal
  TGI: > 100 µM
HOP-18 NSCLC
  TGI: > 100 µM

## OCC1C2C=CC(O2)[C@H]1CO (stereo not given in full)
KM20L2 colon
  TGI: > 100 µM
DMS 273 small cell lung
  TGI: > 100 µM
LXFL 529 NSCLC
  TGI: > 100 µM
DMS 114 small cell lung
  TGI: > 100 µM
M19-MEL melanoma
  TGI: > 100 µM
RXF-631 renal
  TGI: > 100 µM
HOP-18 NSCLC
  TGI: > 100 µM

## O=c1cc(/C=C/c2ccccc2)c2ccc(O/C(=C\c3ccccc3)c3nc4ccccc4c(=O)o3)cc2o1
KM20L2 colon
  TGI: > 100 µM
DMS 273 small cell lung
  TGI: > 100 µM
LXFL 529 NSCLC
  TGI: 63.9 µM
DMS 114 small cell lung
  TGI: 71.7 µM
M19-MEL melanoma
  TGI: 91 µM
RXF-631 renal
  TGI: > 100 µM
